According to US20250062040A1, “COMPUTER-BASED SYSTEMS FOR ACQUIRING AND ANALYZING OBS[…] DATA” (priority 2021, published 2025):

Columns and labels:
[1] = core temperature by rectal temperature measurement; format: in vivo, mice; conditions: 1 mg/kg intraperitoneally; before injection vs just prior to thermal camera recording
Method: In some embodiments, a validation experiment can test whether this method may effectively detect changes in body temperature induced by drugs from thermal videos. In one such test, two groups of mice can be treated with chlorpromazine 1 mg/kg (n=13) or vehicle (n=14) intraperitoneally, and tested after 15 minutes under the thermal camera system. An average change of 0.9 degree Celsius in core temperature was observed by measuring rectal temperature of animals before injection and just prior to their thermal camera recording.

[2] = eye temperature by automated thermographic system of behavioral platform; format: in vivo, mice; conditions: 1 mg/kg intraperitoneally, tested after 15 minutes, 45-minute session, vs vehicle, FIG. 37
From the text: In some embodiments, with regard to image calibration, in an experimental session, actual Peltier temperatures may be logged and saved along with the thermal camera video. The logged Peltier temperatures in Celsius can be paired to the optical density (OD) levels measured at the two Peltier ROIs in each corresponding frame, so that a linear calibration curve can be used to convert the OD of measured eye ROIs to degrees Celsius.
In some embodiments, the subject body, such as a mouse, can be segmented based on the optical density distribution on each frame. The contour of the mouse can be masked by finding the largest eight-connected objects in the binarized image as shown in FIG. 36. […] The size of the eye region relative to the mask and shape properties such as ‘Eccentricity’ (ratio of the distance between the foci of the ellipse and its major axis length) and ‘Solidity’ (proportion of the pixels in the convex hull that are also in the region, computed as Area/ConvexArea) can be measured to filter out false positives, when those parameters may be outside of the range learned from manually annotated ground truth examples.
In some embodiments, with regard to feature extraction, the average OD of automatically detected eye ROIs can be converted to Celsius based on the calibration curve. […]

Male SD rats = assay: rat forced swim test, long lasting antidepressant-like effects; format: in vivo; conditions: vs vehicle group, p<0.05; IP 24 H prior to testing; ketamine 10 mg/kg, Enantiomer I2 30 mg/kg
Method: Male SD rats from Envigo (IN) were used in the study. Ketamine (10 mg/kg) was dissolved in saline and administered IP at a dose volume of 1 ml/kg 24 H prior testing. Enantiomer I2 was dissolved in PBS and administered IP at a dose volume of 1 ml/kg 24 H prior to testing. Videos were scored by an observer blinded to the treatment and frequency of immobility, climbing and swimming were measured. Data were analyzed by ANOVA followed by post hoc analysis where appropriate.

[3] = pEEG spectral power signature; format: in vivo; conditions: 2-h post-injection, normalized against baseline, different doses, FIG. 21
Method: In some embodiments, pEEG may be recorded 1 hour before drug administration and for 2 hours after drug administration from all recorded brain regions simultaneously. To maximize the clinical translatability of a pEEG preclinical database, the frontal cortex and parietal cortex can be selected without limitation. ECoG EEG from these electrodes may be shown to offer direct rodent-to-human translation. Additionally, the hippocampus and striatum can be targeted for indwelling local field potential (LFP) recordings to investigate pharmacological responses on brain regions known to be innervated by different neurotransmitter systems.
In some embodiments, pEEG data consumed by a behavioral platform classier or other machine learning model can be processed first to remove artifacts. […] The average standard frequency bands are shown in Table IV listing the analyzed standard frequency bands. […]
In some embodiments, a normalization against the baseline pre-drug may be convenient, although other types of normalization may be used without limitation. pEEG and accelerometer spectrums can be normalized to the corresponding mean value x_mean during the pre-dosing interval [0, 1 hour](baseline): x_norm=(x−x_mean)/x_mean. For both pEEG and accelerometer data, the post-dosing features (obtained during the 2-hour post-dosing period) can be expressed as percent change from pre-dose baseline. […]

| SMILES | average change in core temperature (rectal temperature) [1] [degree Celsius] | estimated eye temperature [2] | frequency of immobility in the forced swim (Male SD rats) | frequency of swimming in the forced swim (Male SD rats) | change in pEEG power of high frequencies (gamma) [3] |
| --- | --- | --- | --- | --- | --- |
| CN(C)CCCN1c2ccccc2Sc2ccc(Cl)cc21 [chlorpromazine] | 0.9 | decrease of estimated eye temperature |  |  |  |
| CNC1(c2ccccc2Cl)CCCCC1=O (centres unmarked) [ketamine] |  |  | reduced immobility | increased swimming | dose-dependent short-term increase |
